According to patent publication US10760110B2, “Antibiotic testing and screening system” (priority 2017, dated 2020):
Values after ≈ are worked out from the molar mass of the structure shown. Read-outs that look alike come from different tables or passages of the source.

Columns and labels:
Conditions in all cases: Klebsiella pneumoniae
[1] = test system: K. pneumoniae NVT1001 ΔramRΔompK35/36 mutant and its revertants; experiment: Etest MIC, ΔramRΔompK35/36 mutant and its revertants (Table 7); assay type: cell-based
[2] = test system: K. pneumoniae NVT1001 and its ΔompK35/36 and/or ΔramR mutants; experiment: Etest MIC, OmpK35/36 loss and AcrAB-TolC overexpression (ΔramR) strains (Table 6); assay type: cell-based, Klebsiella pneumoniae
In short: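 Ceftazidime and cefotaxime were tested by CLSI broth microdilution on the blaOXA-48 pACYC177 transformant of NVT1001, using CLSI 2017 breakpoints. Parent, porin-deleted (ΔompK35/36) and ΔramR strains were tested by Etest, with values between two-fold dilutions rounded up.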

[3] = test system: K. pneumoniae NVT1001 strains with carbapenemase plasmids; experiment: Etest MIC of β-lactams, OmpK35/36 loss, ΔramR and/or carbapenemase (Table 9); assay type: cell-based, Klebsiella pneumoniae
Description: DNA fragments of the resistance genes along with their flanking regions were amplified from clinical plasmids via PCR with specific primer pairs. The resulting PCR fragments were digested and then cloned into the plasmid pACYC177 or pACYC184. The resulting plasmids were then transformed into K. pneumoniae strain NVT1001 via electroporation. The recombinant bacteria were plated onto LB agar plates containing kanamycin (50 mg/L) or chloramphenicol (50 mg/L), and the presence of the cloned gene was confirmed via PCR and DNA sequencing.
The MICs of antibiotics were determined using the Etest (Biodisk AB, Sweden) according to the manufacturer's instructions. The MICs from the Etest, which fall between standard two-fold dilutions, were rounded up to the next highest two-fold value. The MICs of ceftazidime and cefotaxime against K. pneumoniae NVT1001 harbouring the pACYC177 plasmid with blaOXA-48 were further determined using a broth microdilution test according to the recommendations of the CLSI,^25 and the results were interpreted according to the breakpoints established by the CLSI in 2017.^25 Meanwhile, due to the lack of CLSI breakpoints in 2016 and 2017, the results for cephalothin were interpreted according to the breakpoints established by the CLSI in 2015,^26 and the results for moxifloxacin were interpreted according to the breakpoints established by the EUCAST in 2017.^27

## CO/N=C(\C(=O)N[C@@H]1C(=O)N2C(C(=O)O)=C(COC(C)=O)CS[C@H]12)c1csc(N)n1 [Cefotaxime]
[1]; ΔramRΔompK35/36::ompK35/36 revertant
  MIC: 1 µg/mL
[1]; ΔramRΔompK35/36::ompK35 revertant
  MIC: 4 µg/mL
[1]; ΔramRΔompK35/36::ompK36 revertant
  MIC: 1 µg/mL
[1]; ΔramRΔompK35/36::ramR revertant
  MIC: 2 µg/mL
[1]; ΔramRΔompK35/36::ramR::ompK35/36 revertant
  MIC: 0.06 µg/mL
[1]; ΔramRΔompK35/36::ramR::ompK35 revertant
  MIC: 0.25 µg/mL
[1]; ΔramRΔompK35/36::ramR::ompK36 revertant
  MIC: 0.125 µg/mL
[1]; ΔramRΔompK35/36 mutant
  MIC: 4 µg/mL
[2]; WT, NVT1001, read-out: MIC
  MIC: 0.06 µg/mL (≈ 0.132 µM)
[2]; Δ35, ΔompK35 mutant
  MIC: 0.125 µg/mL (≈ 0.274 µM)
[2]; Δ35/36, ΔompK35/36 mutant
  MIC: 2 µg/mL (≈ 4.39 µM)
[2]; Δ36, ΔompK36 mutant
  MIC: 0.25 µg/mL (≈ 0.549 µM)
[2]; ΔramR mutant
  MIC: 1 µg/mL (≈ 2.2 µM)
[2]; ΔramRΔ35, ΔramRΔompK35 mutant
  MIC: 1 µg/mL (≈ 2.2 µM)
[2]; ΔramRΔ35/36, ΔramRΔompK35/36 mutant
  MIC: 4 µg/mL (≈ 8.78 µM)
[2]; ΔramRΔ36, ΔramRΔompK36 mutant
  MIC: 4 µg/mL (≈ 8.78 µM)
[3]; IMP-8 on pACYC177, WT (NVT1001), read-out: MIC
  MIC: 64 µg/mL
[3]; IMP-8 on pACYC177, Δ35 (ΔompK35 mutant)
  MIC: 128 µg/mL
[3]; IMP-8 on pACYC177, Δ35/36 (ΔompK35/36 mutant)
  MIC: > 256 µg/mL
[3]; IMP-8 on pACYC177, Δ36 (ΔompK36 mutant)
  MIC: 256 µg/mL
[3]; IMP-8 on pACYC177, ΔramR mutant
  MIC: 128 µg/mL
[3]; IMP-8 on pACYC177, ΔramRΔ35 (ΔramRΔompK35 mutant)
  MIC: 128 µg/mL
[3]; IMP-8 on pACYC177, ΔramRΔ35/36 (ΔramRΔompK35/36 mutant)
  MIC: 256 µg/mL
[3]; IMP-8 on pACYC177, ΔramRΔ36 (ΔramRΔompK36 mutant)
  MIC: 256 µg/mL
[3]; KPC-2 on pACYC177, WT (NVT1001), read-out: MIC
  MIC: 128 µg/mL
[3]; KPC-2 on pACYC177, Δ35 (ΔompK35 mutant)
  MIC: 256 µg/mL
[3]; KPC-2 on pACYC177, Δ35/36 (ΔompK35/36 mutant)
  MIC: > 256 µg/mL
[3]; KPC-2 on pACYC177, Δ36 (ΔompK36 mutant)
  MIC: 256 µg/mL
[3]; KPC-2 on pACYC177, ΔramR mutant
  MIC: 256 µg/mL
[3]; KPC-2 on pACYC177, ΔramRΔ35 (ΔramRΔompK35 mutant)
  MIC: 256 µg/mL
[3]; KPC-2 on pACYC177, ΔramRΔ35/36 (ΔramRΔompK35/36 mutant)
  MIC: > 256 µg/mL
[3]; KPC-2 on pACYC177, ΔramRΔ36 (ΔramRΔompK36 mutant)
  MIC: > 256 µg/mL
[3]; KPC-3 on pACYC177, WT (NVT1001), read-out: MIC
  MIC: 128 µg/mL
[3]; KPC-3 on pACYC177, Δ35 (ΔompK35 mutant)
  MIC: 256 µg/mL
[3]; KPC-3 on pACYC177, Δ35/36 (ΔompK35/36 mutant)
  MIC: > 256 µg/mL
[3]; KPC-3 on pACYC177, Δ36 (ΔompK36 mutant)
  MIC: 256 µg/mL
[3]; KPC-3 on pACYC177, ΔramR mutant
  MIC: 256 µg/mL
[3]; KPC-3 on pACYC177, ΔramRΔ35 (ΔramRΔompK35 mutant)
  MIC: 256 µg/mL
[3]; KPC-3 on pACYC177, ΔramRΔ35/36 (ΔramRΔompK35/36 mutant)
  MIC: > 256 µg/mL
[3]; KPC-3 on pACYC177, ΔramRΔ36 (ΔramRΔompK36 mutant)
  MIC: > 256 µg/mL
[3]; NDM-1 on pACYC177, WT (NVT1001), read-out: MIC
  MIC: 256 µg/mL
[3]; NDM-1 on pACYC177, Δ35 (ΔompK35 mutant)
  MIC: 256 µg/mL
[3]; NDM-1 on pACYC177, Δ35/36 (ΔompK35/36 mutant)
  MIC: > 256 µg/mL
[3]; NDM-1 on pACYC177, Δ36 (ΔompK36 mutant)
  MIC: > 256 µg/mL
[3]; NDM-1 on pACYC177, ΔramR mutant
  MIC: > 256 µg/mL
[3]; NDM-1 on pACYC177, ΔramRΔ35 (ΔramRΔompK35 mutant)
  MIC: > 256 µg/mL
[3]; NDM-1 on pACYC177, ΔramRΔ35/36 (ΔramRΔompK35/36 mutant)
  MIC: > 256 µg/mL
[3]; NDM-1 on pACYC177, ΔramRΔ36 (ΔramRΔompK36 mutant)
  MIC: > 256 µg/mL
[3]; OXA-48 on pACYC177, WT (NVT1001), read-out: MIC
  MIC: 2 µg/mL
[3]; OXA-48 on pACYC177, Δ35 (ΔompK35 mutant)
  MIC: 4 µg/mL
[3]; OXA-48 on pACYC177, Δ35/36 (ΔompK35/36 mutant)
  MIC: 32 µg/mL
[3]; OXA-48 on pACYC177, Δ36 (ΔompK36 mutant)
  MIC: 16 µg/mL
[3]; OXA-48 on pACYC177, ΔramR mutant
  MIC: 4 µg/mL
[3]; OXA-48 on pACYC177, ΔramRΔ35 (ΔramRΔompK35 mutant)
  MIC: 4 µg/mL
[3]; OXA-48 on pACYC177, ΔramRΔ35/36 (ΔramRΔompK35/36 mutant)
  MIC: 32 µg/mL
[3]; OXA-48 on pACYC177, ΔramRΔ36 (ΔramRΔompK36 mutant)
  MIC: 32 µg/mL
[3]; VIM-1 on pACYC177, WT (NVT1001), read-out: MIC
  MIC: > 256 µg/mL
[3]; VIM-1 on pACYC177, Δ35 (ΔompK35 mutant)
  MIC: > 256 µg/mL
[3]; VIM-1 on pACYC177, Δ35/36 (ΔompK35/36 mutant)
  MIC: > 256 µg/mL
[3]; VIM-1 on pACYC177, Δ36 (ΔompK36 mutant)
  MIC: > 256 µg/mL
[3]; VIM-1 on pACYC177, ΔramR mutant
  MIC: > 256 µg/mL
[3]; VIM-1 on pACYC177, ΔramRΔ35 (ΔramRΔompK35 mutant)
  MIC: > 256 µg/mL
[3]; VIM-1 on pACYC177, ΔramRΔ35/36 (ΔramRΔompK35/36 mutant)
  MIC: > 256 µg/mL
[3]; VIM-1 on pACYC177, ΔramRΔ36 (ΔramRΔompK36 mutant)
  MIC: > 256 µg/mL
[3]; no supplemental plasmid, WT (NVT1001), read-out: MIC
  MIC: 0.06 µg/mL
[3]; no supplemental plasmid, Δ35 (ΔompK35 mutant)
  MIC: 0.125 µg/mL
[3]; no supplemental plasmid, Δ35/36 (ΔompK35/36 mutant)
  MIC: 2 µg/mL
[3]; no supplemental plasmid, Δ36 (ΔompK36 mutant)
  MIC: 0.25 µg/mL
[3]; no supplemental plasmid, ΔramR mutant
  MIC: 1 µg/mL
[3]; no supplemental plasmid, ΔramRΔ35 (ΔramRΔompK35 mutant)
  MIC: 1 µg/mL
[3]; no supplemental plasmid, ΔramRΔ35/36 (ΔramRΔompK35/36 mutant)
  MIC: 4 µg/mL
[3]; no supplemental plasmid, ΔramRΔ36 (ΔramRΔompK36 mutant)
  MIC: 4 µg/mL
